Reference: ChEMBL document CHEMBL2203227, “Macrocycles are great cycles: applications, opportunities, and challenges of synthetic macrocycles in drug discovery” (J Med Chem, 2011)
Values belong to the molecule of their own block, whether it stands above or below them. Where a SMILES comes first, the peptide text is derived from it. [ ]: non-standard residue; d: D form. The star is where a group is joined. Hyp = O=C(O)[C@@H]1C[C@@H](O)CN1; Nva = CCC[C@H](N)C(=O)O; Bn = c1ccc(C*)cc1

Key:
[1] = target: Growth hormone secretagogue receptor type 1 (Homo sapiens, UniProt Q92847); test: Agonist activity at ghrelin receptor; type: functional
Sequence of Growth hormone secretagogue receptor type 1 (Q92847 whole entry): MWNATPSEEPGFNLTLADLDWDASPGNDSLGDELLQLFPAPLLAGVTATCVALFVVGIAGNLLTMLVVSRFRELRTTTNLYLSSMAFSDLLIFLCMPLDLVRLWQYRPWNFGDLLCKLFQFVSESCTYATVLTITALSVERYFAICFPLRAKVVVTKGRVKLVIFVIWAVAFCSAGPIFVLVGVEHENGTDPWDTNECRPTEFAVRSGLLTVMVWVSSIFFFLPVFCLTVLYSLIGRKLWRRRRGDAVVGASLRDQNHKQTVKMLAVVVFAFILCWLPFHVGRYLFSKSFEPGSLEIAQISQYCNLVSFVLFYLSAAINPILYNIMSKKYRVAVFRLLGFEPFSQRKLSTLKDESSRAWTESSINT

[2] = target: Prothrombin (Homo sapiens, UniProt P00734); test: Inhibition of thrombin
[3] = Selectivity ratio of IC50 for tPa to IC50 for thrombin
[4] = Selectivity ratio of IC50 for trypsin to IC50 for thrombin
[5] = Inhibition of FTase
[6] = system: Hepatitis C virus; test: microbe, parasite or virus in culture
Description: Antiviral activity against HCV by cell based replicon assay

[7] = Inhibition of HCV NS3 protease; parameters: species or system Hepacivirus hominis
[8] = target: Ras-related protein Rap-1A (Homo sapiens, UniProt P62834); test: Inhibition of Rap1a
Sequence of Ras-related protein Rap-1A (P62834 whole entry): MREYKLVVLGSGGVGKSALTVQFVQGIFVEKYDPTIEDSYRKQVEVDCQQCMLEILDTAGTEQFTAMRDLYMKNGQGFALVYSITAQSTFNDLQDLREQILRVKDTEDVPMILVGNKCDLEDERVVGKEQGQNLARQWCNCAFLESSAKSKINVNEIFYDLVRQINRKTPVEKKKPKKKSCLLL

[9] = target: DnaJ homolog subfamily A member 1 (Homo sapiens, UniProt P31689); test: Inhibition of HDJ2
Sequence of DnaJ homolog subfamily A member 1 (P31689 whole entry): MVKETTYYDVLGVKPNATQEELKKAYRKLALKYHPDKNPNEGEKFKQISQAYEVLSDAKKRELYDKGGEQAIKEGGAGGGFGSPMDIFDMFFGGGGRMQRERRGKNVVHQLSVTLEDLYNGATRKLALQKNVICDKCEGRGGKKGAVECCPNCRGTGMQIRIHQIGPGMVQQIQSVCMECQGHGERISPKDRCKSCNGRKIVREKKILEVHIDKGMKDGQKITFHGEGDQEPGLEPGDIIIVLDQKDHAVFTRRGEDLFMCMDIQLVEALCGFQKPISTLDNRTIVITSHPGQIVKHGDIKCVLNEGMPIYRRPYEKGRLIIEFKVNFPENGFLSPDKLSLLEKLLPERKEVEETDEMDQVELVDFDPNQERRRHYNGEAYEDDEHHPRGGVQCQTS

[10] = Inhibition of GGTase
[11] = target: GTPase KRas (Homo sapiens, UniProt P01116); test: Inhibition of Ki-Ras
Sequence of GTPase KRas (P01116 whole entry): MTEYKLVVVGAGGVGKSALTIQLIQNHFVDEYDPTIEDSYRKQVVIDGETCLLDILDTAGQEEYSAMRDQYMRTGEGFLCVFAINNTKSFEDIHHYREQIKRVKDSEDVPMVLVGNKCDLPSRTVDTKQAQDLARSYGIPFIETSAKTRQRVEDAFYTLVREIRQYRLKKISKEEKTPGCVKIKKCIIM

[12] = Oral bioavailability in rat; type: ADME, organism-based; settings: in vivo
[13] = target: T1, Renin (Homo sapiens, UniProt P00797); test: Inhibition of renin
T1 sequence (P00797 whole entry): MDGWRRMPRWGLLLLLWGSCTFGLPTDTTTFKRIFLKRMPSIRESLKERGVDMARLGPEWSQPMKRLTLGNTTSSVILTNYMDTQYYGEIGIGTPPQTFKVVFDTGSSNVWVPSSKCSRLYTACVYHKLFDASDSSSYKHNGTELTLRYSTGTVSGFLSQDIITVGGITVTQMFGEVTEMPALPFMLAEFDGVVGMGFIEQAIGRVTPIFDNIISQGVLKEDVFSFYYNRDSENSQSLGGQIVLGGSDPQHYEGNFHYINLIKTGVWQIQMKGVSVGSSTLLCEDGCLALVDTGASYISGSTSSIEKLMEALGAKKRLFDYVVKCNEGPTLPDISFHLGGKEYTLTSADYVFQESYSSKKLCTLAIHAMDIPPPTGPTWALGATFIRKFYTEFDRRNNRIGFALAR

[14] = system: MCF7; test: cells; settings: Homo sapiens
Description: Antiproliferative activity against human MCF7 cells

[15] = Inhibition of HIV protease; parameters: species or system Human immunodeficiency virus
[16] = Reversible inhibition of HCV NS3 protease; parameters: species or system Hepacivirus hominis
[17] = Inhibition of HDAC by fluorimetry assay
[18] = Inhibition of HCV 3a NS3 protease; parameters: species or system Hepatitis C virus subtype 3a
[19] = system: Hepatitis C virus; test: Inhibition of HCV 1b NS3 protease; parameters: species or system Hepatitis C virus subtype 1b
[20] = target: Sonic hedgehog protein (Mus musculus) (UniProt Q62226); test: Inhibition of sonic hedgehog pathway in mouse NIH-3T3 cells relative to control; type: cell-based; settings: NIH3T3
[21] = target: Beta-secretase 1 (Homo sapiens, UniProt P56817); test: Inhibition of BACE1
Sequence of Beta-secretase 1 (P56817 whole entry): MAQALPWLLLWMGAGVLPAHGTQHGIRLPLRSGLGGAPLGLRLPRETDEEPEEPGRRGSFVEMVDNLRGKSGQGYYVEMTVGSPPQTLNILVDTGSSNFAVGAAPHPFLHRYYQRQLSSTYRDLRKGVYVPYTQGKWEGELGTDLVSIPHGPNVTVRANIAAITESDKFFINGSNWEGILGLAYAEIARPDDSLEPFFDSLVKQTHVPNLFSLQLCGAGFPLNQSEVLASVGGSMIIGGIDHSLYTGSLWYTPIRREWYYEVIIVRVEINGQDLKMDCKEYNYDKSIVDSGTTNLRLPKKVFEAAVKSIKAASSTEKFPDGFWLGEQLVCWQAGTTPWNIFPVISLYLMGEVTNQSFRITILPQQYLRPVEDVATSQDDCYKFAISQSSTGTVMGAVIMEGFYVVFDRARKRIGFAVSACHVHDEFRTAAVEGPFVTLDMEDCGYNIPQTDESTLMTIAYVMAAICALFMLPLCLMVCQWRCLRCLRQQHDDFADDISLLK

Ki [1]: 6 nM
SMILES: CC[C@H](C)[C@@H]1NCCOc2ccccc2CCCNC(=O)[C@@H](Cc2ccccc2)NC(=O)[C@@H](C)N(C)C1=O

SMILES: O=C1COc2ccc(Cl)cc2CNC(=O)[C@@H]2CCCN2C(=O)[C@@H](C2CCCCC2)NC(=O)CCCCN1
Ki [2]: 0.4 nM
Ratio IC50 [3]: > 2000
Ratio IC50 [4]: > 2000

IC50 [5]: 4500 nM
SMILES: N#Cc1ccccc1Oc1ccc2cccc(N3CCN(Cc4cnc[nH]4)CC3=O)c2c1

EC50 [6]: 6.7 nM
Ki [7]: < 0.016 nM
SMILES: C=C[C@@H]1C[C@]1(NC(=O)[C@@H]1C[C@@H]2CN1C(=O)[C@H](C(C)(C)C)NC(=O)OCCCCCc1ccc3nc(-c4ccccc4)cc(c3c1)O2)C(=O)NS(=O)(=O)C1CC1

IC50 [7]: 7000 nM
SMILES: CCC[C@H](NC(=O)[C@@H]1C[C@@H](OCc2ccccc2)CN1C(=O)[C@@H](NC(=O)[C@@H](NC(=O)[C@H](CC(=O)O)NC(=O)[C@H](CC(=O)O)NC(C)=O)[C@@H](C)CC)C(C)C)C(=O)O (Ac-DDIV[Hyp](Bn)[Nva]-OH)

SMILES: N#Cc1ccc2cc1Oc1ccc(CCC3CCCCC3)c(c1)CN1CCN(CC1=O)Cc1cncn1C2
EC50 [8]: 140 nM
EC50 [9]: 12 nM
IC50 [10]: 1.7 nM
EC50 [11]: 1060 nM
IC50 [5]: 1.6 nM

bioavailability [12]: 16%
EC50 [1]: 27 nM
SMILES: C[C@@H]1CN[C@@H](C2CC2)C(=O)N(C)[C@H](C)C(=O)N[C@H](Cc2ccc(F)cc2)C(=O)NCCCc2ccccc2O1 [ULIMORELIN]

IC50 [13]: 69000 nM
SMILES: CC[C@H](C)[C@H](NC(=O)[C@@H](NC[C@@H]1COCCCCCN(C(=O)[C@H](Cc2ccccc2)NC(=O)OC(C)(C)C)[C@@H](C)C(=O)N1)C(C)C)C(=O)N[C@@H](Cc1cnc[nH]1)C(=O)OC

IC50 [14]: 200 nM
SMILES: O=S1(=O)NCCCNc2nc(ncc2Br)Nc2cccc1c2

IC50 [15]: 300 nM
Ki [15]: 0.7 nM
SMILES: COc1ccc(S(=O)(=O)N(CC(C)C)C[C@@H](O)[C@@H]2CCCCCCCCOc3c(O)cccc3C(=O)N2)cc1

Ki [16]: 6 nM
SMILES: CN(C)C(=O)[C@@H](NC(=O)CNC(=O)C(=O)[C@@H]1CCCCCCCCCC[C@H](NC(=O)NC(C)(C)C)C(=O)N2C[C@H]3[C@@H]([C@H]2C(=O)N1)C3(C)C)c1ccccc1

Ki [15]: 0.6 nM
SMILES: CC(C)CCN(C[C@@H](O)[C@@H]1Cc2ccc(cc2)OCCCC(=O)N[C@@H](CC(N)=O)C(=O)N1)S(=O)(=O)c1ccccc1

IC50 [17]: 6100 nM
SMILES: O=C(CCCCCC1C2=NC(Cc3ccccc3)=C(O2)C(Cc2ccccc2)CCCCn2cc(nn2)CCCN1Cc1ccccc1)NO (stereo not drawn)

IC50 [5]: 475 nM
SMILES: Cc1ncn(Cc2ccc(C#N)cc2)c1CN1CC(=O)N(c2cccc(Cl)c2)C[C@@H]1CCS(C)(=O)=O

Ki [15]: 1.8 nM
SMILES: CC[C@H](C)[C@@H]1NC(=O)[C@@H](NC[C@@H](O)[C@H](Cc2ccc(O)cc2)NC[C@H](C(C)C)N2CCCC2=O)Cc2ccc(cc2)OCCCNC1=O

IC50 [6]: 8.7 nM
Ki [7]: 0.18 nM
SMILES: C=C[C@@H]1C[C@]1(NC(=O)[C@@H]1C[C@@H]2CN1C(=O)[C@H](C(C)(C)C)NC(=O)OCCCC/C=C/c1ccc3ccnc(c3c1)O2)C(=O)NS(=O)(=O)C1CC1

EC50 [6]: 2 nM
Ki [18]: 1.2 nM
SMILES: COc1cc2nc(-c3ccccc3)cc3c2cc1/C=C/CC(C)(C)COC(=O)N[C@H]1CCCCC/C=C\[C@@H]2C[C@@]2(C(=O)NS(=O)(=O)C2CC2)NC(=O)[C@@H]2C[C@H](CN2C1=O)O3
Ki [19]: 0.029 nM

Ki [2]: 180 nM
SMILES: NC(N)=NCCC[C@@H]1NC(=O)[C@@H]2CCCN2C(=O)[C@@H](NC=O)CNC(=O)/C=C/[C@H](Cc2ccc(O)cc2)NC(=O)[C@@H](Cc2ccccc2)NC(=O)C1=O [CYCLOTHEONAMIDE A]

Ki [2]: 0.4 nM
Ratio IC50 [3]: > 2000
Ratio IC50 [4]: > 2000
SMILES: O=C1COc2ccc(Cl)cc2CNC(=O)[C@@H]2CCCN2C(=O)[C@@H](C2CCCCC2)NC(=O)CN1

IC50 [15]: 4.6 nM
Ki [15]: 0.012 nM
SMILES: COc1ccc2c(c1)OCC/C=C\CCCCN(C[C@@H](O)[C@H](Cc1ccccc1)NC(=O)O[C@H]1CO[C@H]3OCC[C@H]31)S2(=O)=O

Ki [15]: 15 nM
SMILES: CC[C@H](C)[C@@H]1NC(=O)[C@@H](NC[C@H](O)[C@H](Cc2ccccc2)NC(=O)OC(C)(C)C)Cc2ccc(cc2)Oc2ccc(cc2)C[C@@H](C(=O)OC)NC1=O

Emax [20]: 91%
SMILES: O=C(C[C@@H]1C/C=C/CCC(=O)O[C@H](c2ccccc2)CNC1=O)NCc1ccc(Cl)cc1

IC50 [21]: 27 nM
SMILES: CCCN(c1cc(COC(=O)[C@](C)(N)Cc2ccccc2)cc(C(=O)N[C@H](C)c2ccc(F)cc2)c1)S(C)(=O)=O
